This experiment addresses T1, human renal renin (Homo sapiens, UniProt P00797).
T1 construct: human renal renin, free from acid proteolytic activity; from tissue; host or cells: human kidney (renal)
T1 sequence (P00797 67-406): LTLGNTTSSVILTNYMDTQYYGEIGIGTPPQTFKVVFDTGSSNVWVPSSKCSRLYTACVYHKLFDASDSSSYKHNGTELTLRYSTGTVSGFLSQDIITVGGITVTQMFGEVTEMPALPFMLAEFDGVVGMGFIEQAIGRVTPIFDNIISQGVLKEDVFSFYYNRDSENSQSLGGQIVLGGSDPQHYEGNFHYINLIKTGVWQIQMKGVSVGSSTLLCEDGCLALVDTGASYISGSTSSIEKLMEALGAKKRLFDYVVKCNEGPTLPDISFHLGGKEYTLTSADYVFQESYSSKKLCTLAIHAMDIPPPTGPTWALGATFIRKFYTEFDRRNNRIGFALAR
The experiment is described as follows: inhibition of human renal renin in vitro, angiotensin I formed measured by radioimmunoassay. The class given is biochemical. As to conditions: human renal renin with human renin substrate (angiotensinogen), 37° C., pH 6.0.

As to “2(R,S)-(4-morpholinylcarbonylmethyl)-3-(1'-naphthyl)-propionyl-His-ACHPA-amide of 2-methylbutylamine [Example 87]”, half-maximal inhibition (IC50) required 0.002 µM.

Regarding “2(R,S)-(4-morpholinylcarbonylmethyl)-3-(4'-methoxyphenyl)-propionyl-His-ACHPA-amide of 2-methylbutylamine [Example 89]”, the IC50 (as a rule, the concentration that gives 50% inhibition) is 0.061 µM.

`CC(C)CC(NC(=O)C(Cc1cnc[nH]1)NC(=O)C(Cc1ccccc1)NC(=O)OC(C)(C)C)C(O)CC(=O)NCc1ccccc1` (stereo not drawn) [Example 10, Boc-Phe-His-Sta amide of benzylamine] had a half-inhibitory concentration (IC50) of 0.7 µM.

On to `CC(C)CNC(=O)CC(O)C(CC(C)C)NC(=O)C(Cc1cnc[nH]1)NC(=O)C(Cc1ccccc1)NC(=O)OC(C)(C)C` (stereo not drawn) [Example 12, Boc-Phe-His-Sta amide of isobutylamine], for which 0.5 µM corresponded to half-maximal inhibition (IC50).

As to `CCC(C)C(CO)NC(=O)CC(O)C(CC(C)C)NC(=O)C(C)NC(=O)C(Cc1cccc2ccccc12)NC(=O)OC(C)(C)C` (stereo not drawn) [Example 13, Boc-(α-Naphthyl)Ala-Ala-Sta-amide of isoleucinol], the IC50 was 0.05 µM.

On to `CCC(C)CNC(=O)CC(O)C(CC(C)C)NC(=O)C(Cc1cnc[nH]1)NC(=O)C(Cc1ccccc1)NC(=O)CC(C)(C)C` (stereo not drawn) [Example 16, t-Butylacetyl-Phe-His-Sta amide of 2-methylbutylamine], for which the IC50 was determined as 0.1 µM.

With `CCC(C)CNC(=O)C[C@H](O)[C@H](CC(C)C)NC(=O)[C@H](Cc1c[nH]cn1)NC(=O)[C@H](Cc1ccc(I)cc1)NC(=O)OC(C)(C)C` (stereo partly drawn) [Example 17, Boc-p-iodo-Phe-His-Sta amide of 2-methylbutylamine], the midpoint of inhibition, the IC50, lay at 1 µM.

The compound `CC(C)CCNC(=O)CC(O)C(CC1CCCCC1)NC(=O)C(Cc1cnc[nH]1)NC(=O)C(Cc1ccccc1)NC(=O)OC(C)(C)C` (stereo not drawn) [Example 25, Boc-Phe-His-ACHPA amide of isopentylamine] came in with an IC50 of 0.005 µM.

`CCC(C)CNC(=O)C(OCc1ccccc1)C(O)C(CC1CCCCC1)NC(=O)[C@H](C)NC(=O)[C@H](Cc1ccccc1)NC(=O)OC(C)(C)C` (stereo partly drawn) [Example 32, Boc-Phe-Alaninyl-4-amino-2-benzyloxy-3-hydroxy-5-cyclohexylpentanoic acid amide of 2-methylbutylamine] had an IC50 of 0.006 µM.

For `CCC(C)CNC(=O)C(OCc1ccccc1)C(O)C(CC1CCCCC1)NC(=O)C(Cc1cnc[nH]1)NC(=O)C(Cc1ccccc1)NC(=O)OC(C)(C)C` (stereo not drawn) [Example 33, Boc-Phe-Histidinyl-4-amino-2-benzyloxy-3-hydroxy-5-cyclohexylpentanoic acid amide of 2-methylbutylamine], it took 0.035 µM to reach half-maximal inhibition (IC50).

`CCC(C)CNC(=O)C(O)C(O)C(CC1CCCCC1)NC(=O)C(C)NC(=O)C(Cc1ccccc1)NC(=O)OC(C)(C)C` (stereo not drawn) [Example 34, Boc-Phe-Alaninyl-4-amino-2,3-dihydroxy-5-cyclohexylpentanoic acid amide of 2-methylbutylamine] returned an IC50 of 0.02 µM. This IC50 is about 1.8-fold lower than that of the compound before.

Turning to `CCC(C)CNC(=O)C(O)C(O)C(CC1CCCCC1)NC(=O)C(Cc1cnc[nH]1)NC(=O)C(Cc1ccccc1)NC(=O)OC(C)(C)C` (stereo not drawn) [Example 35, Boc-Phe-Histidinyl-4-amino-2,3-dihydroxy-5-cyclohexylpentanoic acid amide of 2-methylbutylamine], the midpoint of inhibition, the IC50, lay at 0.007 µM.

For the compound `CCC(C)CNC(=O)C(OC)C(O)C(CC1CCCCC1)NC(=O)[C@H](Cc1cnc[nH]1)NC(=O)[C@H](Cc1ccccc1)NC(=O)OC(C)(C)C` (stereo partly drawn) [Example 40, Boc-Phe-Histidinyl-4-amino-2-methoxy-3-hydroxy-5-cyclohexylpentanoic acid amide of 2-methylbutylamine], the IC50 was determined as 0.03 µM.

On to `C=CCC(C(=O)NCC(C)CC)C(O)C(CC1CCCCC1)NC(=O)C(Cc1cnc[nH]1)NC(=O)C(Cc1ccccc1)NC(=O)OC(C)(C)C` (stereo not drawn) [Example 45, Boc-Phe-Histidinyl-4-amino-2-allyl-3-hydroxy-5-cyclohexylpentanoic acid amide of 2-methylbutylamine], for which the IC50 was found to be 0.001 µM.

`CCCC(C(=O)NCC(C)CC)C(O)C(CC1CCCCC1)NC(=O)C(Cc1cnc[nH]1)NC(=O)C(Cc1ccccc1)NC(=O)OC(C)(C)C` (stereo not drawn) [Example 46, Boc-Phe-Histidinyl-4-amino-2-propyl-3-hydroxy-5-cyclohexylpentanoic acid amide of 2-methylbutylamine]: the IC50 came out at 0.0015 µM.

Take `CCC(C)CNC(=O)C(OC)C(O)C(CC1CCCCC1)NC(=O)C(CCSC)NC(=O)C(Cc1ccccc1)NC(=O)OC(C)(C)C` (stereo not drawn) [Example 47, Boc-Phe-Methioninyl-4-amino-2-methoxy-3-hydroxy-5-cyclohexylpentanoic acid amide of 2-methylbutylamine]: half-maximal inhibition (IC50) required 0.001 µM. This IC50 lies about 1.5-fold lower than the previous one.

In turn, `CCC(C)CNC(=O)C(OC)C(O)C(CC1CCCCC1)NC(=O)C(CSC)NC(=O)C(Cc1ccccc1)NC(=O)OC(C)(C)C` (stereo not drawn) [Example 48, Boc-Phe-S-methylcysteinyl-4-amino-2-methoxy-3-hydroxy-5-cyclohexlpentanoic acid amide of 2-methylbutylamine] gave an IC50 of 0.0007 µM. The IC50 values of the last two compounds are within 1.5-fold of each other.

Take `C=CCC(C(=O)NCC(C)CC)C(O)C(CC1CCCCC1)NC(=O)C(C)NC(=O)C(Cc1ccccc1)NC(=O)OC(C)(C)C` (stereo not drawn) [Example 49, Boc-Phe-Alaninyl-4-amino-2-allyl-3-hydroxy-5-cyclohexylpentanoic acid amide of 2-methylbutylamine]: the midpoint of inhibition, the IC50, lay at 0.0015 µM. This IC50 lies about 2.1-fold higher than the previous one.

In turn, `C=CCC(C(=O)NCC(C)CC)C(O)C(CC1CCCCC1)NC(=O)C(CSC)NC(=O)C(Cc1ccccc1)NC(=O)OC(C)(C)C` (stereo not drawn) [Example 50, Boc-Phe-S-methylcysteinyl-4-amino-2-allyl-3-hydroxy-5-cyclohexylpentanoic acid amide of 2-methylbutylamine] returned an IC50 of 0.001 µM.

Turning to `CCC(C)CNC(=O)CC(O)C(CC1SCCS1)NC(=O)[C@H](CSC)NC(=O)[C@H](Cc1ccccc1)NC(=O)OC(C)(C)C` (stereo partly drawn) [Example 78, Boc-Phe-S-methylcysteinyl-[3-hydroxy-4-amino-5-(1',3'-dithiolan-2'-yl)]-pentanoic acid amide of 2-methylbutylamine], the IC50 stood at 0.001 µM.

Take `CCC(C)CNC(=O)CC(O)C(CC1SCCCS1)NC(=O)C(CSC)NC(=O)C(Cc1ccccc1)NC(=O)OC(C)(C)C` (stereo not drawn) [Example 79, Boc-Phe-S-methylcysteinyl-[3-hydroxy-4-amino-5-(1',3'-dithian-2'-yl)]-pentanoic acid amide of 2-methylbutylamine]: the IC50 stood at 0.006 µM. Against the preceding compound, the IC50 is about 6-fold higher.

In turn, `CCC(C)CNC(=O)CC(O)C(CC1OCCO1)NC(=O)C(CSC)NC(=O)C(Cc1ccccc1)NC(=O)OC(C)(C)C` (stereo not drawn) [Example 80, Boc-Phe-S-methylcysteinyl-[3-hydroxy-4-amino-5-(1',3'-dioxolan-2'-yl)]-pentanoic acid amide of 2-methylbutylamine] had an IC50 of 0.6 µM. Compared with the last compound, the IC50 is about 100-fold higher.

`CCC(C)CNC(=O)CC(O)C(CC1OCCCO1)NC(=O)[C@H](CSC)NC(=O)[C@H](Cc1ccccc1)NC(=O)OC(C)(C)C` (stereo partly drawn) [Example 81, Boc-Phe-S-methylcysteinyl-[3-hydroxy-4-amino-5-(1',3'-dioxan-2'-yl)]-pentanoic acid amide of 2-methylbuylamine] returned an IC50 of 0.7 µM.

For `CCOC(=O)N[C@@H](Cc1ccccc1)C(=O)N[C@@H](CC(C)C)C(=O)NC(CC1OCCCO1)C(O)CC(=O)NCC(C)CC` (stereo partly drawn) [Example 82, Ethoxycarbonyl-Phe-Leu-[3-hydroxy-4-amino-5-(1',3'-dioxan-2'-yl)]-pentanoicacid amide of 2-methylbutylamine], the IC50 came to 7.5 µM. This IC50 lies about 11-fold higher than the previous one.

As to `CCC(C)CNC(=O)CC(O)C(CC1SCCS1)NC(=O)C(Cc1cnc[nH]1)NC(=O)C(Cc1ccccc1)NC(=O)OC(C)(C)C` (stereo not drawn) [Example 83, Boc-Phe-His-[3-hydroxy-4-amino-5-(1',3'-dithiolan-2'-yl)]-pentanoic acid amide of 2-methylbutylamine], the IC50 came to 0.0015 µM. Against the preceding compound, the IC50 is about 5000-fold lower.

Consider `CCC(C)CNC(=O)CC(O)C(CC1CCCCC1)NC(=O)C(CSC)NC(=O)C(Cc1ccccc1)NC(=O)N1C[C@@H](O)[C@@H](O)C1` (stereo partly drawn) [Example 95, (3,4-cis-dihydroxypyrrolidinylcarbonyl)-Phe-S-methyl-cys-ACHPA-amide of 2-Methylbutylamine], for which the IC50 came to 0.00056 µM.

As to “(3,4-cis-dihydroxypyrrolidinylcarbonyl)-O-methyl-Tyr-O-methyl-Ser-ACHPA Amide of 2-Methylbutylamine [Example 97]”, the IC50 was found to be 0.016 µM.

“Boc-(α-Naphthyl)-Ala-Ala-Sta amide of benzylamine [Example 11]” came in with an IC50 of 0.4 µM. This IC50 lies about 25-fold higher than the previous one.

(Values after patent US4826958A, “Renin inhibiting compounds” (Abbott Laboratories, priority 1988, dated 1989).)
